Source: US4228292A, “N-Substituted benzothiazolines and benzoxazolines and their use as herbicides and plant growth regulants” (Monsanto Company, priority 1978, dated 1980)

What was measured:
Crabgrass [1] = test: pre-emergent herbicidal test; assay type: in vivo; conditions: T; further: ranges in brackets are in %
Procedure: (§1) The pre-emergent test was conducted as follows:
(§2) A good grade of top soil was placed in aluminum pans and compactd to a depth of 0.95 to 1.27 cm. from the top of the pan. On the top of the soil was placed a predetermined number of seeds or vegetative propagules of various plant species. The soil required to level fill the pans after seeding or adding vegetative propagules was weighed into a pan. A known amount of the herbicidal active ingredient applied in a solvent or as a wettable powder and the soil were thoroughly mixed, and used as a cover layer for prepared pans. After treatment the pans were moved into a greenhouse bench where they were watered from below as needed to give adequate moisture for germination and growth.
(§3) A herbicidal rating code was used to signify the extent of phytotoxicity of each species. The ratings are defined as follows: […]

Hemp Sesbania [2] = test: pre-emergent herbicidal test; assay type: in vivo; conditions: R; further: ranges in brackets are in %
Procedure: as §1, §2, §3

Panicum Spp [3] = test: pre-emergent herbicidal test; assay type: in vivo; conditions: S; further: ranges in brackets are in %
Procedure: as §1, §2, §3

Rice [4] = test: pre-emergent herbicidal test; assay type: in vivo; conditions: O; further: ranges in brackets are in %
Procedure: as §1, §2, §3

Sorghum [5] = test: pre-emergent herbicidal test; assay type: in vivo; conditions: P; further: ranges in brackets are in %
Procedure: as §1, §2, §3

Soybean [6] = test: pre-emergent herbicidal test; assay type: in vivo; conditions: L; further: ranges in brackets are in %
Procedure: as §1, §2, §3

Sugar Beet [7] = test: pre-emergent herbicidal test; assay type: in vivo; conditions: M; further: ranges in brackets are in %
Procedure: as §1, §2, §3

Wheat [8] = test: pre-emergent herbicidal test; assay type: in vivo; conditions: N; further: ranges in brackets are in %
Procedure: as §1, §2, §3

Wild Buckwheat [9] = test: pre-emergent herbicidal test; assay type: in vivo; conditions: Q; further: ranges in brackets are in %
Procedure: as §1, §2, §3

soybean plants = test: plant growth regulating activity on soybean plants; assay type: in vivo, variety Williams
Procedure: A number of soybean plants, variety Williams, were grown from seeds in plastic pots in the greenhouse for a period of one week at which time the plants are thinned to one plant per pot. When the second trifoliate leaf (three weeks) was fully expanded, the plants were treated with a solution of the active ingredient in acetone and water. Aqueous Tween 20 was used as a surfactant.
When the fifth trifoliate leaf (four to five weeks) was fully expanded, the treated plants were compared with the non-treated control plants and the observations recorded.

Crabgrass [10] = test: post-emergent herbicidal test; assay type: in vivo; conditions: T, 4 WAT; further: ranges in brackets are in %
Procedure: (§4) The post-emergent tests were conducted as follows:
(§5) The herbicidal active ingredients are applied in spray form to two or three-week old specimens of various plant species. The spray, a solution or wettable powder suspension containing the appropriate rate of herbicidal active ingredient to give the desired test rate and a surfactant, is applied to the plants. The treated plants are placed in a greenhouse and approximately two or four weeks later the effects are observed and recorded. The results are shown in Tables IX and X in which the post-emergent herbicidal rating code is as follows: […]

Hemp Sesbania [11] = test: post-emergent herbicidal test; assay type: in vivo; conditions: R, 4 WAT; further: ranges in brackets are in %
Procedure: as §4, §5

Panicum Spp [12] = test: post-emergent herbicidal test; assay type: in vivo; conditions: S, 4 WAT; further: ranges in brackets are in %
Procedure: as §4, §5

Rice [13] = test: post-emergent herbicidal test; assay type: in vivo; conditions: O, 4 WAT; further: ranges in brackets are in %
Procedure: as §4, §5

Sorghum [14] = test: post-emergent herbicidal test; assay type: in vivo; conditions: P, 4 WAT; further: ranges in brackets are in %
Procedure: as §4, §5

Soybean [15] = test: post-emergent herbicidal test; assay type: in vivo; conditions: L, 4 WAT; further: ranges in brackets are in %
Procedure: as §4, §5

Sugar Beet [16] = test: post-emergent herbicidal test; assay type: in vivo; conditions: M, 4 WAT; further: ranges in brackets are in %
Procedure: as §4, §5

Wheat [17] = test: post-emergent herbicidal test; assay type: in vivo; conditions: N, 4 WAT; further: ranges in brackets are in %
Procedure: as §4, §5

Wild Buckwheat [18] = test: post-emergent herbicidal test; assay type: in vivo; conditions: Q, 4 WAT; further: ranges in brackets are in %
Procedure: as §4, §5

With `COC(=N)Cn1c(=O)sc2cc(Br)ccc21` [Compound 33] the pre-emergent herbicidal rating (Crabgrass [1]; 0.28 kg/h, 2 WAT) was 0 (0-24), the pre-emergent herbicidal rating (Crabgrass [1]; 1.12 kg/h, 2 WAT) was 0 (0-24) and the pre-emergent herbicidal rating (Crabgrass [1]; 5.6 kg/h, 4 WAT) was 0 (0-24). For the same compound, the pre-emergent herbicidal rating (Hemp Sesbania [2]; 0.28 kg/h, 2 WAT) was 0 (0-24), the pre-emergent herbicidal rating (Hemp Sesbania [2]; 1.12 kg/h, 2 WAT) was 0 (0-24) and the pre-emergent herbicidal rating (Hemp Sesbania [2]; 5.6 kg/h, 4 WAT) was 0 (0-24). The pre-emergent herbicidal rating (Panicum Spp [3]; 0.28 kg/h, 2 WAT) was 0 (0-24), the pre-emergent herbicidal rating (Panicum Spp [3]; 1.12 kg/h, 2 WAT) was 0 (0-24) and the pre-emergent herbicidal rating (Panicum Spp [3]; 5.6 kg/h, 4 WAT) was 0 (0-24). For the same compound, the pre-emergent herbicidal rating (Rice [4]; 0.28 kg/h, 2 WAT) was 0 (0-24), the pre-emergent herbicidal rating (Rice [4]; 1.12 kg/h, 2 WAT) was 0 (0-24) and the pre-emergent herbicidal rating (Rice [4]; 5.6 kg/h, 4 WAT) was 0 (0-24). The pre-emergent herbicidal rating (Sorghum [5]; 0.28 kg/h, 2 WAT) was 0 (0-24), the pre-emergent herbicidal rating (Sorghum [5]; 1.12 kg/h, 2 WAT) was 0 (0-24) and the pre-emergent herbicidal rating (Sorghum [5]; 5.6 kg/h, 4 WAT) was 0 (0-24). For the same compound, the pre-emergent herbicidal rating (Soybean [6]; 0.28 kg/h, 2 WAT) was 0 (0-24), the pre-emergent herbicidal rating (Soybean [6]; 1.12 kg/h, 2 WAT) was 0 (0-24) and the pre-emergent herbicidal rating (Soybean [6]; 5.6 kg/h, 4 WAT) was 1 (25-49). The pre-emergent herbicidal rating (Sugar Beet [7]; 0.28 kg/h, 2 WAT) was 0 (0-24), the pre-emergent herbicidal rating (Sugar Beet [7]; 1.12 kg/h, 2 WAT) was 0 (0-24) and the pre-emergent herbicidal rating (Sugar Beet [7]; 5.6 kg/h, 4 WAT) was 1 (25-49). For the same compound, the pre-emergent herbicidal rating (Wheat [8]; 0.28 kg/h, 2 WAT) was 0 (0-24), the pre-emergent herbicidal rating (Wheat [8]; 1.12 kg/h, 2 WAT) was 0 (0-24) and the pre-emergent herbicidal rating (Wheat [8]; 5.6 kg/h, 4 WAT) was 0 (0-24). The pre-emergent herbicidal rating (Wild Buckwheat [9]; 0.28 kg/h, 2 WAT) was 0 (0-24), the pre-emergent herbicidal rating (Wild Buckwheat [9]; 1.12 kg/h, 2 WAT) was 0 (0-24) and the pre-emergent herbicidal rating (Wild Buckwheat [9]; 5.6 kg/h, 4 WAT) was 1 (25-49). The “plant growth regulant observations” value (soybean plants; 0.112 kg/h) was “Inhibition of dry weight”.
`COC(=N)Cn1c(=O)oc2ccccc21` [Compound 22] was tested, and the “plant growth regulant observations” value (soybean plants; 0.56 kg/h) was “Leaf alteration of new growth”.
In the case of `CCOC(=N)Cn1c(=O)sc2ccccc21` [Compound 12], the pre-emergent herbicidal rating (Crabgrass [1]; 1.12 kg/h, 4 WAT) is reported as 0 (0-24), the pre-emergent herbicidal rating (Crabgrass [1]; 5.6 kg/h, 4 WAT) is reported as 0 (0-24) and the pre-emergent herbicidal rating (Hemp Sesbania [2]; 1.12 kg/h, 4 WAT) is reported as 1 (25-49). The pre-emergent herbicidal rating (Hemp Sesbania [2]; 5.6 kg/h, 4 WAT) was 2 (50-74), the pre-emergent herbicidal rating (Panicum Spp [3]; 1.12 kg/h, 4 WAT) was 0 (0-24) and the pre-emergent herbicidal rating (Panicum Spp [3]; 5.6 kg/h, 4 WAT) was 0 (0-24). For the same compound, the pre-emergent herbicidal rating (Rice [4]; 1.12 kg/h, 4 WAT) was 0 (0-24), the pre-emergent herbicidal rating (Rice [4]; 5.6 kg/h, 4 WAT) was 0 (0-24) and the pre-emergent herbicidal rating (Sorghum [5]; 1.12 kg/h, 4 WAT) was 0 (0-24). The pre-emergent herbicidal rating (Sorghum [5]; 5.6 kg/h, 4 WAT) was 0 (0-24), the pre-emergent herbicidal rating (Soybean [6]; 1.12 kg/h, 4 WAT) was 1 (25-49) and the pre-emergent herbicidal rating (Soybean [6]; 5.6 kg/h, 4 WAT) was 2 (50-74). For the same compound, the pre-emergent herbicidal rating (Sugar Beet [7]; 1.12 kg/h, 4 WAT) was 3 (75-100), the pre-emergent herbicidal rating (Sugar Beet [7]; 5.6 kg/h, 4 WAT) was 3 (75-100) and the pre-emergent herbicidal rating (Wheat [8]; 1.12 kg/h, 4 WAT) was 0 (0-24). The pre-emergent herbicidal rating (Wheat [8]; 5.6 kg/h, 4 WAT) was 1 (25-49), the pre-emergent herbicidal rating (Wild Buckwheat [9]; 1.12 kg/h, 4 WAT) was 1 (25-49) and the pre-emergent herbicidal rating (Wild Buckwheat [9]; 5.6 kg/h, 4 WAT) was 1 (25-49). The post-emergent herbicidal rating (Crabgrass [10]; 0.28 kg/h) was 0 (0-24), the post-emergent herbicidal rating (Crabgrass [10]; 1.12 kg/h) was 0 (0-24) and the post-emergent herbicidal rating (Crabgrass [10]; 5.6 kg/h) was 0 (0-24). For the same compound, the post-emergent herbicidal rating (Hemp Sesbania [11]; 0.28 kg/h) was 1 (25-49), the post-emergent herbicidal rating (Hemp Sesbania [11]; 1.12 kg/h) was 2 (50-74) and the post-emergent herbicidal rating (Hemp Sesbania [11]; 5.6 kg/h) was 3 (75-99). For the same compound, the post-emergent herbicidal rating (Panicum Spp [12]; 0.28 kg/h) was 0 (0-24), the post-emergent herbicidal rating (Panicum Spp [12]; 1.12 kg/h) was 0 (0-24) and the post-emergent herbicidal rating (Panicum Spp [12]; 5.6 kg/h) was 0 (0-24). The post-emergent herbicidal rating (Rice [13]; 0.28 kg/h) was 0 (0-24), the post-emergent herbicidal rating (Rice [13]; 1.12 kg/h) was 0 (0-24) and the post-emergent herbicidal rating (Rice [13]; 5.6 kg/h) was 0 (0-24). For the same compound, the post-emergent herbicidal rating (Sorghum [14]; 0.28 kg/h) was 0 (0-24), the post-emergent herbicidal rating (Sorghum [14]; 1.12 kg/h) was 0 (0-24) and the post-emergent herbicidal rating (Sorghum [14]; 5.6 kg/h) was 0 (0-24). The post-emergent herbicidal rating (Soybean [15]; 0.28 kg/h) was 1 (25-49), the post-emergent herbicidal rating (Soybean [15]; 1.12 kg/h) was 1 (25-49) and the post-emergent herbicidal rating (Soybean [15]; 5.6 kg/h) was 2 (50-74). For the same compound, the post-emergent herbicidal rating (Sugar Beet [16]; 0.28 kg/h) was 1 (25-49), the post-emergent herbicidal rating (Sugar Beet [16]; 1.12 kg/h) was 2 (50-74) and the post-emergent herbicidal rating (Sugar Beet [16]; 5.6 kg/h) was 3 (75-99). The post-emergent herbicidal rating (Wheat [17]; 0.28 kg/h) was 0 (0-24), the post-emergent herbicidal rating (Wheat [17]; 1.12 kg/h) was 0 (0-24) and the post-emergent herbicidal rating (Wheat [17]; 5.6 kg/h) was 1 (25-49). For the same compound, the post-emergent herbicidal rating (Wild Buckwheat [18]; 0.28 kg/h) was 1 (25-49), the post-emergent herbicidal rating (Wild Buckwheat [18]; 1.12 kg/h) was 2 (50-74) and the post-emergent herbicidal rating (Wild Buckwheat [18]; 5.6 kg/h) was 3 (75-99).
